Source: PubChem BioAssay (NCI)
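Cultured in 96-well plates, cells were exposed to test compound for 48 hours across five concentrations. Abbreviation: GI50, concentration required for 50% inhibition of growth. Definition used: TGI = concentration required for complete inhibition of growth.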

Legend:
Assay in all cases: inhibition of tumour cell growth, NCI panel, 48 h
SNB-19 CNS = test system: SNB-19 CNS
SNB-75 CNS = test system: SNB-75 CNS
LOX IMVI melanoma = test system: LOX IMVI melanoma
SF-539 CNS = test system: SF-539 CNS
HCT-15 colon = test system: HCT-15 colon
OVCAR-3 ovarian = test system: OVCAR-3 ovarian
NCI-H226 lung = test system: NCI-H226 lung
OVCAR-5 ovarian = test system: OVCAR-5 ovarian
PC-3 prostate = test system: PC-3 prostate
SN12C renal = test system: SN12C renal

Structure (SMILES) | GI50 (SNB-19 CNS) | TGI (SNB-19 CNS) | GI50 (SNB-75 CNS) | TGI (SNB-75 CNS) | GI50 (LOX IMVI melanoma) | TGI (LOX IMVI melanoma) | GI50 (SF-539 CNS) | TGI (SF-539 CNS) | GI50 (HCT-15 colon) | TGI (HCT-15 colon) | GI50 (OVCAR-3 ovarian) | TGI (OVCAR-3 ovarian) | GI50 (NCI-H226 lung) | TGI (NCI-H226 lung) | GI50 (OVCAR-5 ovarian) | TGI (OVCAR-5 ovarian) | GI50 (PC-3 prostate) | TGI (PC-3 prostate) | GI50 (SN12C renal) | TGI (SN12C renal)
c1ccc(Sc2ccc(Cc3nc4cc5ccccc5cc4[nH]3)cc2)cc1 | 8.89 µM | > 100 µM | > 66.5 µM | > 100 µM | 1.42 µM | 29.1 µM | 1.34 µM | 19.5 µM | 0.205 µM | 53.9 µM | 8.34 µM | 39.8 µM | 2.48 µM | 26.9 µM | 17.9 µM | 98.8 µM | 4.56 µM | > 64.3 µM | 16.8 µM | 76.5 µM
CCCCCCCCCCCCCCCC(=O)OCC(C[As](=O)(O)O)OC(=O)CCCCCCCCCCCCCCC (stereo not given) |  | > 100 µM |  | > 96.7 µM |  | > 100 µM |  | > 100 µM |  | > 100 µM |  | > 100 µM |  | > 100 µM |  | > 100 µM |  | > 100 µM |  | > 100 µM
CN1CCN(CCCNc2nc3ccc(Oc4ccc(NC(=O)Nc5cc(C(F)(F)F)ccc5F)cc4)cc3[nH]2)CC1 | 3.99 µM | 7.42 µM | 5.14 µM | 13.2 µM | 4.25 µM | 7.91 µM | 4.22 µM | 8.52 µM | > 25 µM | > 25 µM | 4.49 µM | 9.65 µM | 5.55 µM | 16.8 µM | 6.75 µM | > 20.7 µM | 4.82 µM | 10.6 µM | 4.77 µM | 11.2 µM
NS(=O)(=O)c1ccc(-c2ccc3c(NC(=O)C4CC4)n[nH]c3c2)cc1 | > 25 µM | > 25 µM | > 25 µM | > 25 µM | > 25 µM | > 25 µM | > 25 µM | > 25 µM | > 25 µM | > 25 µM | > 25 µM | > 25 µM | > 25 µM | > 25 µM | > 25 µM | > 25 µM | > 25 µM | > 25 µM | > 25 µM | > 25 µM
CN(C)CCNc1ccc(CO)c2oc3ccc(O)cc3c(=O)c12 |  | 55.9 µM |  | 47.1 µM |  | 27 µM |  | 25.1 µM |  | 29.9 µM |  | 42.1 µM |  | 47.7 µM |  | 38 µM |  | 29.3 µM |  | > 66.3 µM
COc1ccc(-c2[nH]c3ccc(OC)cc3c2/C=C(\C#N)S(=O)(=O)c2ccccc2)cc1 | 3.14 µM | > 100 µM | 0.561 µM | 45.5 µM | 1.15 µM | > 100 µM | 0.495 µM | 2.51 µM | 0.614 µM | > 100 µM | 0.356 µM | 1.62 µM | 3.51 µM | > 100 µM | 3.85 µM | > 100 µM | 0.533 µM | 23.6 µM | 2.2 µM | > 100 µM
Nc1nc(Nc2cccnc2)sc1C(=O)c1ccccc1F | 2.65 µM | > 23.5 µM | 0.58 µM | 4.74 µM | 2.26 µM | > 100 µM | 1.52 µM | 3.88 µM | 2.82 µM | > 87.8 µM | 2.82 µM | > 28.1 µM | 2.67 µM | 31.4 µM | 2.17 µM | 7.61 µM | 3.29 µM | > 100 µM | 3.02 µM | > 100 µM
N#Cc1cc(-c2cc3ccccc3o2)oc1N | 4.07 µM | 31.7 µM | 3.61 µM | 15.5 µM | 2.87 µM | 12.5 µM | 3.89 µM | 14.5 µM | 3.35 µM | 13 µM | 1.98 µM | 6.38 µM | 3.12 µM | 13.4 µM | 4.34 µM | 30.6 µM | 2.73 µM | 6.85 µM | 3 µM | 11.8 µM
Cc1ccc(NC(=O)c2cccc(C(C)(C)C#N)c2)cc1Nc1ccc2ncn(C)c(=O)c2c1 | 5.48 µM | > 100 µM | 12.7 µM | > 100 µM | 0.0585 µM | > 67.5 µM | 3.32 µM | > 100 µM | 3.11 µM | > 100 µM | 13.4 µM | > 100 µM | 5.62 µM | > 100 µM | 0.123 µM | > 100 µM | 25.9 µM | > 100 µM | 4.94 µM | > 100 µM
